Experimental data reported in patent EP4721746A1, “TREATMENT OF MALIGNANT TUMOR” (SymBio Pharmaceuticals Limited, priority 2023, dated 2024).

Columns and labels:
[1] = system: NK/T-cell lymphoma cell lines; assay: CellTiter-Glo 2.0 cell viability assay, NK/T-cell lymphoma cell lines; format: cell-based; conditions: 11 NK/T-cell lymphoma cell lines; Fig. 1
Method: The effect of BCV on cell viability was examined in 11 different NK/T-cell lymphoma cell lines. Cell viability was quantified using Promega CellTiter-Glo(registered trademark) 2.0 Cell Viability Assay (Promega, Madison, Wisconsin, USA) according to the manufacturer's protocol. Specifically, cells were plated in a 96-well plate at a concentration of 2×10^3 cells in 100 µL of culture medium, and the drug (BCV) was added at each concentration. After each time point, Promega CellTiter-Glo (registered trademark) 2.0 Cell Viability Assay reagent was added to the wells and incubated at room temperature for 10 minutes, and subsequently, absorbance at 480 nm was measured using a Tecan M200 Infinite 96-well plate reader and iControl software 1.6 (Tecan, Männedorf, Switzerland). Cell viability was calculated as a percentage of the control absorbance. The growth-inhibitory effect was analyzed by generating a dose-response curve as a plot of the percentage of viable cells against the drug concentration, and their IC50s were estimated using GraphPad Prism version 8.0.2 (GraphPad Software). All reactions were performed in triplicate.

[2] = system: NK/T-cell lymphoma cells (NK-S1); assay: In vivo study, NSG mice inoculated with NK-S1
Method: (§1) 0.5 x 10^6 cells of NK-S1 were inoculated into 6-week-old female NSG mice, and BCV or a control solvent was administered intraperitoneally at a dosage of 40 mg/kg twice weekly. Tumor measurements were recorded twice weekly until the tumor size in the control group reached approximately 2000 mm^3. Mice were euthanized according to the IACUC guidelines. The tumor sizes of the experimental group and the control group (n=8 per group) were averaged at each time point (Days 1, 5, 8, 12, and 15) and compared statistically. Throughout the experiment, signs of toxicity including diarrhea and weight loss were monitored.

[3] = system: T-cell lymphoma cell lines; assay: CellTiter-Glo 2.0 cell viability assay, T-cell lymphoma cell lines; format: cell-based; conditions: 11 T-cell lymphoma cell lines; Fig. 9
Method: The effect of BCV on the viability of 11 different T-cell lymphoma cell lines was examined. Cell viability was quantified using Promega CellTiter-Glo(registered trademark) 2.0 Cell Viability Assay (Promega, Madison, Wisconsin, USA) according to the manufacturer's protocol. Specifically, cells were plated in a 96-well plate at a concentration of 2×10^3 cells in 100 µL of culture medium, and the drug was added at each concentration. After each time point, Promega CellTiter-Glo(registered trademark) 2.0 Cell Viability Assay reagent was added to the wells and incubated at room temperature for 10 minutes, and subsequently, absorbance at 480 nm was measured using a Tecan M200 Infinite 96-well plate reader and iControl software 1.6 (Tecan, Männedorf, Switzerland). Cell viability was calculated as a percentage of a control absorbance. The growth-inhibitory effect was analyzed by generating a dose-response curve as a plot of the percentage of viable cells against the drug concentration, and their IC50s were estimated using GraphPad Prism version 8.0.2 (GraphPad Software). All reactions were performed in triplicate.

[4] = system: T-cell lymphoma cells (Z4739); assay: In vivo study, NSG mice inoculated with Z4739
Method: as §1, with “of Z4739” for “of NK-S1”, “recorded at each time point (Days 4, 7, 11, 18, and 21)” for “recorded twice weekly”, “approximately 2500” for “approximately 2000”, “sizes and weights” for “sizes”, “group (n=5” for “group (n=8”, “averaged on Day 21” for “averaged at each time point (Days 1, 5, 8, 12, and 15)”

Z4739 cell line = assay: Whole transcriptome sequencing and GSEA of BCV-treated Z4739 cell line; format: cell-based; conditions: Z4739 treated with 0.1 and 1 µg/mL of BCV
Method: The effect of BCV on the gene expression of a T-cell lymphoma cell line was examined. Whole transcriptome sequencing of the Z4739 cell line treated with 0.1 and 1 µg/mL of BCV was performed, and Gene set enrichment analysis (GSEA) was performed using the Molecular Signatures Database (MSigDB) Hallmark gene set. […] Individual gene expression profiles (IFNB1, IFNY, CCL5, CXCL10, MYC) obtained from the whole transcriptome sequencing results were expressed as the number of transcripts detected per million reads.

Z4739 cells = assay: Western blotting of lysates of BCV-treated Z4739 cells; format: cell-based; conditions: Z4739 treated with 0.1 and 1 µg/mL of BCV; Western blot, Fig. 13
Method: Lysates of Z4739 cells treated with 0.1 and 1 µg/mL of BCV were separated by SDS-PAGE using 4-15% Mini-PROTEAN™ TGX Stain-Free™ Protein Gels (Bio-Rad Laboratories, Hercules, CA, USA), and the separated components were transferred to a 0.2 µm PVDF membrane (Bio-Rad Laboratories, Hercules, California, USA). After blocking for 1 hour in a TBST solution (50 mM Tris/HCl, pH 7.4, 150 mM NaCl, 0.1% Tween-20) containing 5% skimmed milk powder (Bio-Rad Laboratories, Hercules, CA, USA) or 5% bovine serum albumin (Sigma-Aldrich, Darmstadt, Germany), the membrane was exposed to respective primary antibodies overnight at 4°C with gentle shaking. Furthermore, exposure to an HRP-conjugated anti-rabbit or anti-mouse antibody (Cytiva, Washington D.C., USA) was performed for 1 hour, and finally, chemiluminescent detection was performed using a SuperSignal Substrate Western Blotting Kit (Thermo Fisher Scientific, MA, USA) and imaged on a ChemiDoc™ XRS+ system (Bio-Rad Laboratories, Hercules, California, USA) using Image Lab™ software.

[5] = system: B-cell lymphoma cell lines; assay: CellTiter-Glo 2.0 cell viability assay, B-cell lymphoma cell lines; format: cell-based; conditions: 19 B-cell lymphoma cell lines; Fig. 14
Method: The effect of BCV on cell viability was examined in 19 different B-cell lymphoma cell lines and a CML cell line (K-562) as a control. Cell viability was quantified using Promega CellTiter-Glo(registered trademark) 2.0 Cell Viability Assay (Promega, Madison, Wisconsin, USA) according to the manufacturer's protocol. Specifically, cells were plated in a 96-well plate at a concentration of 2×10^3 cells in 100 µL of culture medium, and the drug (BCV) was added at each concentration. After each time point, Promega CellTiter-Glo(registered trademark) 2.0 Cell Viability Assay reagent was added to the wells and incubated at room temperature for 10 minutes, and subsequently, absorbance at 480 nm was measured using a Tecan M200 Infinite 96-well plate reader and iControl software 1.6 (Tecan, Männedorf, Switzerland). Cell viability was calculated as a percentage of a control absorbance. The growth-inhibitory effect was analyzed by generating a dose-response curve as a plot of the percentage of viable cells against the drug concentration, and their IC50s were estimated using GraphPad Prism version 8.0.2 (GraphPad Software). All reactions were performed in triplicate.

[6] = system: B-cell lymphoma cells (OCI-LY19); assay: In vivo study, NSG mice inoculated with OCI-LY19
Method: as §1, with “of OCI-LY19” for “of NK-S1”, “recorded at each time point (Days 1, 5, 6, and 7)” for “recorded twice weekly”, “approximately 2500” for “approximately 2000”, “sizes and weights” for “sizes”, “group (n=5” for “group (n=8”, “averaged on Day 7” for “averaged at each time point (Days 1, 5, 8, 12, and 15)”

Q: How did the “Sensitivity to BCV” value [1] turn out when CCCCCCCCCCCCCCCCOCCCOP(=O)(O)CO[C@H](CO)Cn1ccc(N)nc1=O [BCV, [(2S)-1-(4-amino-2-oxopyrimidin-1-yl)-3-hydroxypropan-2-yl]oxymethyl-(3-hexadecoxypropoxy)phosphinic acid] was run?
A: Its value is “varied for each cell line”.

Q: And the “viability of NK/T-cell lymphoma cells” value [1]?
A: The value was “decreased”.

Q: What about the “animal's health status” value ([2]; NK-S1 in NSG mice, 40 mg/kg intraperitoneally twice weekly) of the same compound?
A: Its value is “good”.

Q: And the “enlargement of lymphoma (tumor size)” value ([2]; NK-S1 in NSG mice, 40 mg/kg intraperitoneally twice weekly, Days 1-15, Figs. 2A-D)?
A: Its value is “significantly suppressed”.

Q: What about the “signs of toxicity: diarrhea” value ([2]; mouse, in vivo, ip, 40 mg/kg) of the same compound?
A: The value was “no diarrhea observed”.

Q: And the “Sensitivity to BCV” value [3]?
A: Its value is “high in all cell lines”.

Q: What about the “viability of T-cell lymphoma cells” value [3] of the same compound?
A: Its value is “decreased”.

Q: And the “animal's health status” value ([4]; Z4739 in NSG mice, 40 mg/kg intraperitoneally twice weekly)?
A: Its value is “good”.

Q: What about the “enlargement of the lymphoma (tumor size)” value ([4]; Z4739 in NSG mice, 40 mg/kg intraperitoneally twice weekly, Figs. 10A-D) of the same compound?
A: Its value is “significantly suppressed”.

Q: And the tumor volume ([4]; Z4739 in NSG mice, 40 mg/kg intraperitoneally twice weekly, between Day 0 and Day 21, Fig. 10A)?
A: Its tumor volume is “almost no increase in tumor volume observed”.

Q: And the “signs of toxicity: weight loss or diarrhea” value ([4]; mouse, in vivo, ip, 40 mg/kg)?
A: The value was “no significant weight loss or diarrhea was observed”.

Q: And the “expression of immune activation-related genes such as INFγ” value (Z4739 cell line)?
A: The value was “increased”.

Q: What about the “expression of MYC” value (Z4739 cell line; Figs. 12A-C) of the same compound?
A: Its value is “decreased”.

Q: What about the “expression of MYC-related gene groups” value (Z4739 cell line; GSEA) of the same compound?
A: The value was “decreased”.

Q: What about the “expression of other oncogenic genes such as those related to mTOR” value (Z4739 cell line; GSEA) of the same compound?
A: Its value is “decreased”.

Q: And the “DNA damage (phospho-H2AX)” value (Z4739 cells)?
A: Its value is “increase”.

Q: And the MYC protein (Z4739 cells)?
A: The MYC protein was “decrease”.

Q: And the PD-L1 (Z4739 cells)?
A: Its PD-L1 is “increase”.

Q: And the “apoptosis indicators (cleaved PARP, cleaved caspase-3)” value (Z4739 cells)?
A: Its value is “increase”.

Q: What about the “cell cycle-related indicators (phospho-CHK1 Ser317/Ser345)” value (Z4739 cells) of the same compound?
A: Its value is “increase”.

Q: And the “Sensitivity to BCV” value [5]?
A: Its value is “varied for each cell line”.

Q: And the “viability of B-cell lymphoma cells” value [5]?
A: The value was “decreased”.

Q: What about the “animal's health status” value ([6]; OCI-LY19 in NSG mice, 40 mg/kg intraperitoneally twice weekly) of the same compound?
A: The value was “good”.

Q: What about the “enlargement of lymphoma (tumor size)” value ([6]; OCI-LY19 in NSG mice, 40 mg/kg intraperitoneally twice weekly, Days 1-7, Figs. 15A-D) of the same compound?
A: Its value is “significantly suppressed”.

Q: And the “signs of toxicity: weight loss or diarrhea” value ([6]; mouse, in vivo, ip, 40 mg/kg)?
A: The value was “no weight loss or diarrhea observed”.
